This assay deals with alkaline phosphatase activity in T47D cells. Briefly: Effects of progestins and antiprogestins on alkaline phosphatase activity in T47D cells. The format is cell-based. How it is done: Effects of Progestins and Antiprogestins on Alkaline Phosphatase Activity in T47D Cells
This example was performed to identify progestins or antiprogestins by determining a compound's effect on alkaline phosphatase activity in T47D cells.
Culture medium: DMEM:F12 (1:1) (GIBCO, BRL) supplemented with 5% (v/v) charcoal stripped fetal bovine serum (not heat-inactivated), 100 U/mL penicillin, 100 μg/mL streptomycin, and 2 mM the GlutaMax™ reagent (GIBCO, BRL).
Alkaline phosphatase assay buffer: • I. 0.1M Tris-HCl, pH 9.8, containing 0.2% the Triton® X-100 reagent • II. 0.1 M Tris-HCl, pH 9.8, containing 4 mM p-nitrophenyl phosphate (Sigma).
Frozen T47D cells were thawed in a 37° C. water bath and diluted to 280,000 cells/mL in culture medium. To each well in a 96-well plate (Falcon, Becton Dickinson Labware), 180 μL of diluted cell suspension was added. Twenty μL of reference or test compounds diluted in the culture medium was then added to each well. When testing for progestin antagonist activity, reference antiprogestins or test compounds were added in the presence of 1 nM progesterone. The cells were incubated at 37° C. in a 5% CO2/humidified atmosphere for 24 hours. NOTE: For high throughput screening, one concentration of each compound was tested at 0.3 μg/mL. Based on an average molecular weight of 300 g/mol for the compounds in the library, the concentration was approximately 1 μM. Subsequently, active compounds were tested in dose response assays to determine EC50 and IC50.
At the end of treatment, the medium was removed from the plate. Fifty μL of assay buffer I was added to each well. The plates were shaken in a titer plate shaker for 15 minutes. 150 μL of assay buffer II was then added to each well. Optical density measurements were taken at 5 minute intervals for 30 minutes at a test wavelength of 405 nm.
For reference and test compounds, a dose response curve was generated for dose (X-axis) vs. the rate of enzyme reaction (slope) (Y-axis). Square root-transformed data was used for analysis of variance and nonlinear dose response curve fitting for both agonist and antagonist modes. Huber weighting was used to down-weight the effects of outliners. EC50 or IC50 values were calculated from the retransformed values. JMP software (SAS Institute, Inc.) was used for both one-way analysis of variance and non-4 linear dose response analysis in both single dose and dose response studies.
Progesterone and trimegestone are reference progestins known in the art and typically show an EC50 of about 0.1 nM to about 2.0 nM.

Where [1] appears, read: Homo sapiens, T47D alkaline phosphatase assay, antagonist mode in the presence of 1 nM progesterone, 24 hours.
The mark [2] stands for this setting: T47D alkaline phosphatase assay, antagonist mode in the presence of 1 nM progesterone, 24 hours.

The record followed here is patent US7723332B2, “Aryl sulfonamides useful for modulation of the progesterone receptor” (Wyeth LLC, priority 2007, dated 2010).

As a reminder, the IC50 is the point on the concentration scale where inhibition reaches its midpoint. Consider `Cn1c(C#N)ccc1-c1ccc(S(=O)(=O)NC2CC2)cc1F` [Example 38, 4-(5-cyano-1-methyl-1H-pyrrol-2-yl)-N-cyclopropyl-3-fluorobenzenesulfonamide], for which the IC50 under setting [1] is 9.7 nM.

As for `Cn1c(C#N)ccc1-c1ccc(S(=O)(=O)NCC2CC2)cc1F` [Example 39, 4-(5-cyano-1-methyl-1H-pyrrol-2-yl)-N-(cyclopropylmethyl)-3-fluorobenzenesulfonamide], the IC50 under setting [1] is 40.4 nM.

As to `Cn1c(C#N)ccc1-c1ccc(S(=O)(=O)NC2CCC2)cc1F` [Example 40, 4-(5-cyano-1-methyl-1H-pyrrol-2-yl)-N-cyclobutyl-3-fluorobenzenesulfonamide], the 50% inhibitory concentration (IC50) under setting [1] stood at 18.1 nM.

Turning to `CCN(CC)S(=O)(=O)c1ccc(-c2ccc(C#N)n2C)cc1F` [Example 41, 4-(5-cyano-1-methyl-1H-pyrrol-2-yl)-N,N-diethyl-2-fluorobenzenesulfonamide], the half-maximal inhibitory concentration (IC50) under setting [1] turned out to be 62.2 nM.

Turning to `CC(C)NS(=O)(=O)c1ccc(-c2ccc(C#N)n2C)cc1F` [Example 42, 4-(5-cyano-1-methyl-1H-pyrrol-2-yl)-2-fluoro-N-isopropylbenzenesulfonamide], under setting [1], the IC50 is 48.1 nM.

Regarding `Cn1c(C#N)ccc1-c1ccc(S(=O)(=O)NC2CC2)c(F)c1` [Example 43, 4-(5-cyano-1-methyl-1H-pyrrol-2-yl)-N-cyclopropyl-2-fluorobenzenesulfonamide], the “Active Dose” value under setting [2] was 30 nM.

Regarding `Cn1c(C#N)ccc1-c1ccc(S(=O)(=O)NCC2CC2)c(F)c1` [Example 44, 4-(5-cyano-1-methyl-1H-pyrrol-2-yl)-N-(cyclopropylmethyl)-2-fluorobenzenesulfonamide], the IC50 under setting [1] is 45.6 nM.

As for `Cn1c(C#N)ccc1-c1ccc(S(=O)(=O)NC2CCC2)c(F)c1` [Example 45, 4-(5-cyano-1-methyl-1H-pyrrol-2-yl)-N-cyclobutyl-2-fluorobenzenesulfonamide], the 50% inhibitory concentration (IC50) under setting [1] came out at 99.4 nM.

On to `Cn1c(C#N)ccc1-c1ccc(S(N)(=O)=O)c(OC(F)(F)F)c1` [Example 46, 4-(5-cyano-1-methyl-1H-pyrrol-2-yl)-2-(trifluoromethoxy)benzenesulfonamide], for which the half-maximal inhibitory concentration (IC50) under setting [1] worked out at 75.8 nM.

With `CN(C)S(=O)(=O)c1ccc(-c2ccc(C#N)n2C)cc1OC(F)(F)F` [Example 48, 4-(5-cyano-1-methyl-1H-pyrrol-2-yl)-N,N-dimethyl-2-(trifluoromethoxy)benzenesulfonamide], under setting [1], the IC50 amounted to 62.7 nM.

Regarding `CCNS(=O)(=O)c1ccc(-c2ccc(C#N)n2C)cc1OC(F)(F)F` [Example 49, 4-(5-cyano-1-methyl-1H-pyrrol-2-yl)-N-ethyl-2-(trifluoromethoxy)benzenesulfonamide], the half-maximal inhibitory concentration (IC50) under setting [1] stood at 122 nM.

Consider `CCN(CC)S(=O)(=O)c1ccc(-c2ccc(C#N)n2C)cc1OC(F)(F)F` [Example 50, 4-(5-cyano-1-methyl-1H-pyrrol-2-yl)-N,N-diethyl-2-(trifluoromethoxy)benzenesulfonamide], for which, under setting [1], the IC50 was determined as 101 nM.

Regarding `CC(C)NS(=O)(=O)c1ccc(-c2ccc(C#N)n2C)cc1OC(F)(F)F` [Example 51, 4-(5-cyano-1-methyl-1H-pyrrol-2-yl)-N-isopropyl-2-(trifluoromethoxy)benzenesulfonamide], the IC50 under setting [1] amounted to 32.5 nM.

Take `CCCNS(=O)(=O)c1ccc(-c2ccc(C#N)n2C)cc1OC(F)(F)F` [Example 52, 4-(5-cyano-1-methyl-1H-pyrrol-2-yl)-N-propyl-2-(trifluoromethoxy)benzenesulfonamide]: the half-maximal inhibitory concentration (IC50) under setting [1] came to 8.4 nM.

On to `Cn1c(C#N)ccc1-c1ccc(S(=O)(=O)N2CCCC2)c(OC(F)(F)F)c1` [Example 53, 1-methyl-5-[4-(pyrrolidin-1-ylsulfonyl)-3-(trifluoromethoxy)phenyl]-1H-pyrrole-2-carbonitrile], for which the concentration for half-maximal inhibition (IC50) under setting [1] was found to be 22.7 nM.

Consider `Cn1c(C#N)ccc1-c1ccc(S(=O)(=O)NC2CC2)c(OC(F)(F)F)c1` [Example 54, 4-(5-cyano-1-methyl-1H-pyrrol-2-yl)-N-cyclopropyl-2-(trifluoromethoxy)benzenesulfonamide], for which, under setting [1], the half-maximal inhibitory concentration (IC50) was 71.7 nM.

As for `Cn1c(C#N)ccc1-c1ccc(S(=O)(=O)NCC2CC2)c(OC(F)(F)F)c1` [Example 55, 4-(5-cyano-1-methyl-1H-pyrrol-2-yl)-N-(cyclopropylmethyl)-2-(trifluoromethoxy)benzenesulfonamide], the half-maximal inhibitory concentration (IC50) under setting [1] was 12.3 nM.

In the case of `Cn1c(C#N)ccc1-c1ccc(S(=O)(=O)NC2CCC2)c(OC(F)(F)F)c1` [Example 56, 4-(5-cyano-1-methyl-1H-pyrrol-2-yl)-N-cyclobutyl-2-(trifluoromethoxy)benzenesulfonamide], the “Active Dose” value under setting [2] is 30 nM.

`Cn1c(C#N)ccc1-c1ccc(S(=O)(=O)NC(C)(C)C)c(OC(F)(F)F)c1` [Example 57, N-tert-butyl-4-(5-cyano-1-methyl-1H-pyrrol-2-yl)-2-(trifluoromethoxy)benzenesulfonamide]: the “Active Dose” value under setting [2] was 30 nM.

Consider `CN(C)c1cc(-c2ccc(C#N)n2C)ccc1S(=O)(=O)N(C)C` [Example 58, 4-(5-cyano-1-methyl-1H-pyrrol-2-yl)-2-(dimethylamino)-N,N-dimethylbenzenesulfonamide], for which the half-maximal inhibitory concentration (IC50) under setting [1] worked out at 25.9 nM.

`CNS(=O)(=O)c1cc(F)c(-c2ccc(C#N)n2C)cc1F` [Example 59, 4-(5-cyano-1-methyl-1H-pyrrol-2-yl)-2,5-difluoro-N-methylbenzenesulfonamide]: the half-maximal inhibitory concentration (IC50) under setting [1] turned out to be 36.1 nM.

Turning to `CC(C)NS(=O)(=O)c1cc(F)c(-c2ccc(C#N)n2C)cc1F` [Example 60, 4-(5-cyano-1-methyl-1H-pyrrol-2-yl)-2,5-difluoro-N-isopropylbenzenesulfonamide], under setting [1], the IC50 was 49.3 nM.

With `Cn1c(C#N)ccc1-c1cc(F)c(S(=O)(=O)NC2CC2)cc1F` [Example 61, 4-(5-cyano-1-methyl-1H-pyrrol-2-yl)-N-cyclopropyl-2,5-difluorobenzenesulfonamide], the “Active Dose” value under setting [2] stood at 30 nM.

Regarding `Cn1c(C#N)ccc1-c1cc(F)c(S(=O)(=O)NCC2CC2)cc1F` [Example 62, 4-(5-cyano-1-methyl-1H-pyrrol-2-yl)-N-(cyclopropylmethyl)-2,5-difluorobenzenesulfonamide], the IC50 under setting [1] is 164 nM.

Consider `Cn1c(C#N)ccc1-c1ccc(S(N)(=O)=O)cc1` [Example 63, 4-(5-cyano-1-methyl-1H-pyrrol-2-yl)benzenesulfonamide], for which the IC50 under setting [1] worked out at 99.5 nM.

By EC50 is commonly meant the concentration needed to bring the measured effect to its halfway point. Read a low EC50 as higher potency in that assay. As for `CC(=O)[C@H]1CC[C@H]2[C@@H]3CCC4=CC(=O)CC[C@]4(C)[C@H]3CC[C@]12C` [Progesterone], the concentration giving a half-maximal response (EC50) (Homo sapiens, T47D, reference progestins, agonist mode, typical values) lay within 0.1 to 2 nM.

`CC#C[C@]1(O)CC[C@H]2[C@@H]3CCC4=CC(=O)CCC4=C3[C@@H](c3ccc(N(C)C)cc3)C[C@@]21C` [RU486, reference compound]: for the setting “Homo sapiens, T47D, 24 h, reference antiprogestin, in the presence of 1 nM progesterone, typical value”, the 50% inhibitory concentration (IC50) was 0.1 to 2 nM.
